Measured values taken from US7358359B2, “Antibacterial agents” (University of Washington, priority 2003, dated 2008).
Values after ≈ are worked out from the molar mass of the structure shown. Where two headings read alike, the source gives them in different places.

Assays:
Format in all cases: cell-based
[1] = tested on: Pseudomonas aeruginosa cystic fibrosis isolate 3198; experiment: MIC vs cystic fibrosis isolate of P. aeruginosa 3198 (sensitive to most antibacterials); settings: strain 3198, Sensitive, comparator antibacterials
Experimental: (§1) Bacterial isolates were cultivated from −70° C. frozen stocks by two consecutive overnight passages at 35° C. in ambient air on 5% blood agar (Remel, Lenexa, Kans.). Clinical isolates tested were from a collection composed of isolates collected during clinical trials and recent clinical isolates obtained from various geographically diverse hospitals in the US. Quality control and primary panel strains were from the American Type Culture Collection (ATCC; Rockville, Md.), with the exception of P. aeruginosa PAO200, a strain with a deletion of the mexABoprM genes that was received from Dr. H. Schweizer.
(§2) Minimum Inhibitory Concentrations (MICs) were determined by the broth microdilution method in accordance with the National Committee for Clinical Laboratory Standards (NCCLS) guidelines. In brief, organism suspensions were are adjusted to a 0.5 McFarland standard to yield a final inoculum between 3×10^5 and 7×10^5 colony-forming units (CFU)/mL. Drug dilutions and inocula were made in sterile, cation adjusted Mueller-Hinton Broth (Remel). An inoculum volume of 100 μl was added to wells containing 100 μl of broth with 2-fold serial dilutions of drug. All inoculated microdilution trays were incubated in ambient air at 35° C. for 18-24 hours. Following incubation, the lowest concentration of the drug that prevented visible growth was recorded as the MIC.

[2] = tested on: Pseudomonas aeruginosa cystic fibrosis isolate 3236; experiment: MIC vs cystic fibrosis isolate of P. aeruginosa 3236 (sensitive to most antibacterials); settings: strain 3236, Sensitive, comparator antibacterials
Experimental: as §1, §2

[3] = tested on: Pseudomonas aeruginosa cystic fibrosis isolate 2196; experiment: MIC vs cystic fibrosis isolate of P. aeruginosa 2196 (resistant to ciprofloxacin); settings: strain 2196, Cipro R, comparator antibacterials
Experimental: as §1, §2

[4] = tested on: Pseudomonas aeruginosa cystic fibrosis isolate 3224; experiment: MIC vs cystic fibrosis isolate of P. aeruginosa 3224; settings: strain 3224, Tobra R, comparator antibacterials
Experimental: as §1, §2

[5] = tested on: Pseudomonas aeruginosa cystic fibrosis isolate 3317; experiment: MIC vs cystic fibrosis isolate of P. aeruginosa 3317 (resistant to aztreonam); settings: strain 3317, Aztr. R, comparator antibacterials
Experimental: as §1, §2

[6] = tested on: Pseudomonas aeruginosa cystic fibrosis isolate 1145; experiment: microbe, parasite or virus in culture; settings: strain 1145, MDR, comparator antibacterials, read-out: MIC
Experimental: as §1, §2

[7] = tested on: Pseudomonas aeruginosa cystic fibrosis isolate 3206; experiment: microbe, parasite or virus in culture; settings: strain 3206, MDR, comparator antibacterials, read-out: MIC
Experimental: as §1, §2

[8] = tested on: non-CF clinical isolates of P. aeruginosa; experiment: MIC vs non-CF clinical isolates of P. aeruginosa; settings: Pseudomonas aeruginosa, comparator antibacterials
Experimental: as §1, with “Schweizer. […] Strain Z61 (ATCC 35151) is also hypersusceptible to antibacterials. It is thought that the hypersusceptibility of this strain is the result of increased permeability of its outer membrane (Angus B L et al, Antimicrobial Agents and Chemotherapy 1982 21,299-309: Outer membrane permeability in Pseudomonas aeruginosa: Comparison of a wild-type with an antibacterial-supersusceptible mutant).” for “Schweizer.”
as §2, with “MIC. Performance of the assay was monitored by the use of laboratory quality-control strains against tobramycin, that has a defined MIC spectrum, in accordance with NCCLS guidelines.” for “MIC.”

[9] = tested on: Acinetobacter calcoaceticus; experiment: MIC vs non-fermenting organisms: Acinetobacter calcoaceticus; settings: Acinet. calc., comparator antibacterials
Experimental: as §1, §2

Alcaligenes xylosoxidans = experiment: MIC vs non-fermenting organisms: Alcaligenes xylosoxidans; settings: Achromobacter xylosoxidans; Alcal. xyl; comparator antibacterials
Experimental: as §1, §2

Burkholderia cepacia = experiment: MIC vs non-fermenting organisms: Burkholderia cepacia; settings: B. cepacia, comparator antibacterials
Experimental: as §1, §2

[10] = tested on: Stenotrophomonas maltophilia; experiment: MIC vs non-fermenting organisms: Stenotrophomonas maltophilia; settings: S. malt., comparator antibacterials
Experimental: as §1, §2

Enterobacter aerogenes = experiment: MIC vs enteric organisms: Enterobacter aerogenes; settings: Klebsiella aerogenes; E. aer.; comparator antibacterials
Experimental: as §1, §2

Enterobacter cloacae = experiment: MIC vs enteric organisms: Enterobacter cloacae; settings: E. clo., comparator antibacterials
Experimental: as §1, §2

Escherichia coli = experiment: MIC vs enteric organisms: Escherichia coli clinical isolates
Experimental: as §1, §2

Klebsiella pneumoniae = experiment: MIC vs enteric organisms: Klebsiella pneumoniae; settings: K. pneu., comparator antibacterials
Experimental: as §1, §2

Klebsiella oxytoca = experiment: MIC vs enteric organisms: Klebsiella oxytoca; settings: K. oxy., comparator antibacterials
Experimental: as §1, §2

Proteus mirabilis = experiment: MIC vs enteric organisms: Proteus mirabilis; settings: P. mir., comparator antibacterials
Experimental: as §1, §2

Serratia marcescens = experiment: MIC vs enteric organisms: Serratia marcescens; settings: S. marc., comparator antibacterials
Experimental: as §1, §2

[11] = tested on: Pseudomonas aeruginosa cystic fibrosis isolate 3232; experiment: MIC vs cystic fibrosis isolate of P. aeruginosa 3232 (Ceftaz. R); settings: strain 3232, Ceftaz. R, comparator antibacterials
[12] = Burkholderia cepacia, read-out: MIC
[13] = Stenotrophomonas maltophilia, read-out: MIC
[14] = Escherichia coli, E. coli 2788, comparator antibacterials, read-out: MIC

Structure (SMILES)	MIC [1] [µg/mL]	MIC [2] [µg/mL]	MIC [3] [µg/mL]	MIC [4] [µg/mL]	MIC [5] [µg/mL]	MIC [6] [µg/mL]	MIC [7] [µg/mL]	MIC ([8]; P. aer 12307) [µg/mL]	MIC ([8]; P. aer psa-6b) [µg/mL]	MIC [9] [µg/mL]	MIC (Alcaligenes xylosoxidans) [µg/mL]	MIC (Burkholderia cepacia) [µg/mL]	MIC (Burkholderia cepacia; [12]) [µg/mL]	MIC [10, 13] [µg/mL]	MIC (Enterobacter cloacae) [µg/mL]	MIC (Klebsiella pneumoniae) [µg/mL]	MIC (Klebsiella oxytoca) [µg/mL]	MIC (Proteus mirabilis) [µg/mL]	MIC (Serratia marcescens) [µg/mL]	MIC [11] [µg/mL]	also measured
CC(C)(O/N=C(\C(=O)N[C@@H]1C(=O)N2C(C(=O)[O-])=C(C[n+]3ccccc3)CS[C@H]12)c1csc(N)n1)C(=O)O [Ceftazidime, ceftazidime, reference compound]	2 (≈ 3.66 µM)	0.25 (≈ 0.457 µM)	2 (≈ 3.66 µM)	2 (≈ 3.66 µM)	4 (≈ 7.32 µM)	> 128	> 128	4 (≈ 7.32 µM)	64 (≈ 117 µM)	16 (≈ 29.3 µM)	1 (≈ 1.83 µM)	4 (≈ 7.32 µM)	8 (≈ 14.6 µM)	1 (≈ 1.83 µM)	0.25 (≈ 0.457 µM)	8 (≈ 14.6 µM)	0.25 (≈ 0.457 µM)	≤ 0.13	0.25 (≈ 0.457 µM)	64 (≈ 117 µM)	MIC (Enterobacter aerogenes): 32 µg/mL (≈ 58.5 µM); MIC (Escherichia coli; Escherichia coli): > 128 µg/mL; MIC (Escherichia coli; [14]): 0.25 µg/mL (≈ 0.457 µM)
NC[C@H]1O[C@H](O[C@H]2[C@H](O)[C@@H](O[C@H]3O[C@H](CO)[C@@H](O)[C@H](N)[C@H]3O)[C@H](N)C[C@@H]2N)[C@H](N)C[C@@H]1O [Tobramycin, tobramycin, reference compound]	2 (≈ 4.28 µM)	0.5 (≈ 1.07 µM)	2 (≈ 4.28 µM)	64 (≈ 137 µM)	2 (≈ 4.28 µM)	8 to 32 (≈ 17.1 to 68.4 µM)	–	8 (≈ 17.1 µM)	2 (≈ 4.28 µM)	2 (≈ 4.28 µM)	64 (≈ 137 µM)	> 128	64 (≈ 137 µM)	0.5 (≈ 1.07 µM)	0.06 (≈ 0.128 µM)	64 (≈ 137 µM)	1 (≈ 2.14 µM)	2 (≈ 4.28 µM)	2 (≈ 4.28 µM)	1 (≈ 2.14 µM)	MIC (Enterobacter aerogenes): 64 µg/mL (≈ 137 µM)
C[C@H]1[C@H](NC(=O)/C(=N\OC(C)(C)C(=O)O)c2csc(N)n2)C(=O)N1S(=O)(=O)O [Aztreonam, aztreonam, reference compound]	1 (≈ 2.3 µM)	0.5 (≈ 1.15 µM)	1 (≈ 2.3 µM)	1 (≈ 2.3 µM)	64 (≈ 147 µM)	> 128	> 128	16 (≈ 36.7 µM)	32 (≈ 73.5 µM)	32 (≈ 73.5 µM)	32 (≈ 73.5 µM)	–	64 (≈ 147 µM)	–	≤ 0.13	2 (≈ 4.59 µM)	0.5 (≈ 1.15 µM)	≤ 0.13	≤ 0.13	1 (≈ 2.3 µM)	MIC [10]: 16 µg/mL (≈ 36.7 µM); MIC (Escherichia coli; E. coli 1619, comparator antibacterials): 64 µg/mL (≈ 147 µM); MIC (Escherichia coli; Escherichia coli, E. coli 1619, comparator antibacterials, read-out: MIC): 128 µg/mL (≈ 294 µM); MIC (Escherichia coli; [14]): ≤ 0.13 µg/mL
